Target: Bruton tyrosine kinase (BTK) (Homo sapiens (Human), UniProt Q06187)
Assay: BTK Enzyme Activity Testing (in vitro kinase assay, ADP-Glo kinase assay kit)
Assay type: biochemical
Conditions: BTK kinase (full length with His-Tag), 50 uM ATP in substrate solution, 30 min pre-incubation, 60 min reaction, 10 concentration points
Procedure: An in vitro kinase assay is used to evaluate the effect of the inventive compounds on Bruton tyrosine kinase (BTK) activity.
The experimental method is generally described as follows:
In vitro activity of BTK is measured by detecting ADP produced in a kinase reaction with an ADP-Glo™ kinase assay kit from Promega Company. In the kinase assay, the kinase consumes ATP to phosphorylate the substrate, while producing ADP. ADP-Glo reagent then terminates the kinase reaction and completely consumes the remaining ATP. Finally, a kinase detection reagent is added to convert generated ADP into new ATP. Luciferase in the detection reagent is capable of catalyzing fluorescein with the participation of ATP and O2 to produce oxidized fluorescein, AMP, and generate light quantum, thereby converting a chemical signal into an optical signal (Luminecence). The intensity of optical signal is positively correlated with the production of ADP in the kinase reaction, so that the activity of kinase BTK can be thereby quantitatively determined.
All assays are conducted at a constant temperature of 23° C., using a Corning 3674 Type white 384-well plate; the BTK kinase (full length with His-Tag) is expressed and purified internally by the company; the substrate of kinase is polypeptide (4:1 Glu,Tyr) (from SignalChem) and ATP (from Sigma); and a microplate reader EnVision (Perkin Elmer) is used for reading an optical signal. The assay buffer includes 40 mM Tris-HCl (pH 7.5), 10 mM MgCl2 (Sigma), 2 mM MnCl2 (Sigma), 0.05 mM DTT (Sigma), and 0.01% BSA (Sigma); the BTK kinase is diluted with the assay buffer to a concentration of 1.6 ng/uL as a kinase reaction solution; and the substrate reaction solution comprises 0.2 mg/mL polypeptide substrate and 50 uM ATP.
Compound's IC50 is calculated from 10 concentration points by the following method. The compound is dissolved and diluted in 100% DMSO to a concentration of 1 mM, followed by a serial 3× dilution with DMSO to a minimum concentration of 0.05 uM. Each concentration stock is further diluted 40× with the assay buffer. To a 384-well assay plate are added 1 uL of a series of compound solutions and 2 uL of the kinase reaction solution, followed by mixing homogeneously, and incubating in the dark at room temperature. After in the dark for 30 min, 2 uL of the substrate reaction solution is added to allowed the total reaction volume to 5 uL. The reaction mixture is incubated in the dark at room temperature in the dark for another 60 min. An equal volume of 5 uL ADP-Glo™ reagent is then added to terminate the reaction. The resulting mixture is homogeneously mixed, and stands at room temperature for 40 min. Finally, 10 uL of the kinase detection reagent is added, stands at room temperature for 30 min, and then a value is read on Envision.
Percent inhibition is calculated based on the following equation: Inhibition %=[1−(RLUcompound−RLUmin)/(RLUmax−RLUmin)]×100 wherein RLUcompound is the luminescence reading at a given concentration of compound, RLUmin is the luminescence reading in the absence of kinase, and RLUmax is the luminescence reading in the absence of compound. IC50 of the compound is calculated by using a XLfit program in Excel.

Bruton tyrosine kinase (BTK), sequence (Q06187 whole entry): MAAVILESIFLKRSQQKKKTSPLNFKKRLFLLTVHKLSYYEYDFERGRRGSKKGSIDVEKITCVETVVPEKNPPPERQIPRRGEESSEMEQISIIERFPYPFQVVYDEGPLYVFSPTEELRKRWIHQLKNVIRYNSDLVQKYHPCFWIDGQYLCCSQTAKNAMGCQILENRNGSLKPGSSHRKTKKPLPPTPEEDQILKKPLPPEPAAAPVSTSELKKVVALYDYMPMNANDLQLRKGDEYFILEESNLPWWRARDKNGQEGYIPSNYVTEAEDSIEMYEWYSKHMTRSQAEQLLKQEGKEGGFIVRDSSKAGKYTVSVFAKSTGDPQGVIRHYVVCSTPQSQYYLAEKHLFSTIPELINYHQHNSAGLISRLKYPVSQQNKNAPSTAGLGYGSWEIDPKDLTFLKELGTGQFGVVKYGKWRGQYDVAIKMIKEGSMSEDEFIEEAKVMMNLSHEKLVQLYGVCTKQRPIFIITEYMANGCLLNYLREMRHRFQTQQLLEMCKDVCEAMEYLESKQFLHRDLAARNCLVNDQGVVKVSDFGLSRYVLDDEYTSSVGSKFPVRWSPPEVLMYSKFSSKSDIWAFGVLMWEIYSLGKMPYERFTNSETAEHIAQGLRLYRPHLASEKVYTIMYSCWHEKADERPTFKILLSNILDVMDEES

Compound: C=CC(=O)N1CCC(c2cc3cn[nH]c3c(-c3ccc(Oc4cccc(F)c4)cc3)n2)CC1 [Compound 15, 1-(4-(7-(4-(3-fluorophenoxyl)phenyl)-1H-pyrazolo[3,4-c]pyridin-5-yl)piperidin-1-yl)prop-2-en-1-one]
- IC50: < 100 nM

Compound: C=CC(=O)N1CCCC(c2cc3cn[nH]c3c(-c3ccc(CN4CCOCC4)cc3)n2)C1 (centres unmarked) [Compound 1, 1-(3-(7-(4-(morpholinomethyl)phenyl)-1H-pyrazolo[3,4-c]pyridin-5-yl)piperidin-1-yl)prop-2-en-1-one]
- IC50: 100 to 500 nM

Compound: C=CC(=O)N1CCC(c2cc3cn[nH]c3c(-c3ccc(Oc4ccccc4)cc3)n2)C1 (centres unmarked) [Compound 6, 1-(3-(7-(4-phenoxyphenyl)-1H-pyrazolo[3,4-c]pyridin-5-yl)pyrrolidin-1-yl)prop-2-en-1-one]
- IC50: < 100 nM

Compound: C=CC(=O)NC1CCN(c2cc3cn[nH]c3c(-c3ccc(Oc4ccccc4)cc3)n2)C1 (centres unmarked) [Compound 10, N-(1-(7-(4-phenoxyphenyl)-1H-pyrazolo[3,4-c]pyridin-5-yl)pyrrolidin-3-yl)acrylamide]
- IC50: < 100 nM

Compound: C=CC(=O)N1CCC(c2cc3cn[nH]c3c(-c3ccc(Oc4ccccn4)cc3)n2)CC1 [Compound 13, 1-(4-(7-(4-(pyridin-2-oxy)phenyl)-1H-pyrazolo[3,4-c]pyridin-5-yl)piperidin-1-yl)prop-2-en-1-one]
- IC50: < 100 nM

Compound: CC#CC(=O)N1CCC(c2cc3cn[nH]c3c(-c3ccc(C(=O)Nc4ccccn4)cc3)n2)C1 (centres unmarked) [Compound 19, 4-(5-(1-(but-2-ynoyl)pyrrolidin-3-yl)-1H-pyrazolo[3,4-c]pyridin-7-yl)-N-(pyridin-2-yl)benzamide]
- IC50: 100 to 500 nM

Compound: C=CC(=O)N1CCC(c2cc3cn[nH]c3c(-c3ccc(C(=O)Nc4ccccn4)cc3)n2)C1 (centres unmarked) [Compound 18, 4-(5-(1-acryloylpyrrolidin-3-yl)-1H-pyrazolo[3,4-c]pyridin-7-yl)-N-(pyridin-2-yl) benzamide]
- IC50: < 100 nM

Compound: C=CC(=O)N1CC[C@H](c2cc3cn[nH]c3c(-c3ccc(Oc4ccccc4)cc3)n2)C1 [Compound 22a, (S)-1-(3-(7-(4-phenoxyphenyl)-1H-pyrazolo[3,4-c]pyridin-5-yl)pyrrolidin-1-yl)prop-2-en-1-one]
- IC50: < 100 nM

Compound: C=CC(=O)N1CCC(Nc2cc3cn[nH]c3c(-c3ccc(Oc4ccccc4)cc3)n2)C1 (centres unmarked) [Compound 11, 1-(3-((7-(4-phenoxyphenyl)-1H-pyrazolo[3,4-c]pyridin-5-yl)amino)pyrrolidin-1-yl)prop-2-en-1-one]
- IC50: < 100 nM

Compound: C=CC(=O)N1CCCC1c1cc2cn[nH]c2c(-c2ccc(Oc3ccccc3)cc2)n1 (centres unmarked) [Compound 21, 1-(2-(7-(4-phenoxyphenyl)-1H-pyrazolo[3,4-c]pyridin-5-yl)pyrrolidin-1-yl)prop-2-en-1-one]
- IC50: < 100 nM

Compound: CN(C)C/C=C/C(=O)N1CCCC(c2cc3cn[nH]c3c(-c3ccc(Oc4ccccc4)cc3)n2)C1 (centres unmarked) [Compound 4, (E)-4-(dimethylamino)-1-(3-(7-(4-phenoxyphenyl)-1H-pyrazolo[3,4-c]pyridin-5-yl)piperidin-1-yl)but-2-en-1-one]
- IC50: < 100 nM

Compound: C=CC(=O)N1CCCC(c2cc3cn[nH]c3c(-c3ccc(OC4COC4)cc3)n2)C1 (centres unmarked) [Compound 2, 1-(3-(7-(4-(oxetan-3-oxy)phenyl)-1H-pyrazolo[3,4-c]pyridin-5-yl)piperidin-1-yl)prop-2-en-1-one]
- IC50: 100 to 500 nM

Compound: C=CC(=O)N1CC[C@@H](c2cc3cn[nH]c3c(-c3ccc(Oc4ccccc4)cc3)n2)C1 [Compound 22b, (R)-1-(3-(7-(4-phenoxyphenyl)-1H-pyrazolo[3,4-c]pyridin-5-yl)pyrrolidin-1-yl)prop-2-en-1-one]
- IC50: < 100 nM

Compound: C=CC(=O)N1CCCC(c2cc(-c3ccc(Oc4ccccc4)cc3)c3[nH]ncc3c2)C1 (centres unmarked) [Compound 20, 1-(3-(7-(4-phenoxyphenyl)-1H-indazol-5-yl)piperidin-1-yl)prop-2-en-1-one]
- IC50: < 100 nM

Compound: C=CC(=O)N1CCC(c2cc3cn[nH]c3c(-c3ccc(Oc4ccccc4)cc3F)n2)CC1 [Compound 14, 1-(4-(7-(2-fluoro-4-phenoxyphenyl)-1H-pyrazolo[3,4-c]pyridin-5-yl)piperidin-1-yl)prop-2-en-1-one]
- IC50: < 100 nM

Compound: CC#CC(=O)N1CCCC(c2cc3cn[nH]c3c(-c3ccc(Oc4ccccc4)cc3)n2)C1 (centres unmarked) [Compound 17, 1-(3-(7-(4-phenoxyphenyl)-1H-pyrazolo[3,4-c]pyridin-5-yl)piperidin-1-yl)but-2-yn-1-one]
- IC50: 100 to 500 nM

Compound: C=CC(=O)N1CCN(c2cc3cn[nH]c3c(-c3ccc(Oc4ccccc4)cc3)n2)CC1 [Compound 9, 1-(4-(7-(4-phenoxyphenyl)-1H-pyrazolo[3,4-c]pyridin-5-yl)piperazin-1-yl)prop-2-en-1-one]
- IC50: < 100 nM

Compound: C=CC(=O)N1CCC(c2cc3cn[nH]c3c(-c3ccc(CN4CCCC4)cc3)n2)CC1 [Compound 16, 1-(4-(7-(4-(pyrrolidin-1-ylmethyl)phenyl)-1H-pyrazolo[3,4-c]pyridin-5-yl)piperidin-1-yl)prop-2-en-1-one]
- IC50: > 500 nM

Compound: C=CC(=O)N1CCC(c2cc3cn[nH]c3c(-c3ccc(OC4CCCC4)cc3)n2)CC1 [Compound 12]
- IC50: < 100 nM

Compound: C=CC(=O)Nc1cccc(-c2cc3cn[nH]c3c(-c3ccc(Oc4ccccc4)cc3)n2)c1 [Compound 8, N-(3-(7-(4-phenoxyphenyl)-1H-pyrazolo[3,4-c]pyridin-5-yl)phenyl)acrylamide]
- IC50: < 100 nM

Compound: C=CS(=O)(=O)N1CCCC(c2cc3cn[nH]c3c(-c3ccc(Oc4ccccc4)cc3)n2)C1 (centres unmarked) [Compound 5, 7-(4-phenoxyphenyl)-5-(1-(ethenylsulfonyl)piperidin-3-yl)-1H-pyrazolo[3,4-c]pyridine]
- IC50: < 100 nM

Compound: C=CC(=O)N1CCC(c2cc3cn[nH]c3c(-c3ccc(Oc4ccccc4)cc3)n2)CC1 [Compound 7, 1-(4-(7-(4-phenoxyphenyl)-1H-pyrazolo[3,4-c]pyridin-5-yl)piperidin-1-yl)prop-2-en-1-one]
- IC50: < 100 nM

Compound: C=CC(=O)N1CCCC(c2cc3cn[nH]c3c(-c3ccc(Oc4ccccc4)cc3)n2)C1 (centres unmarked) [Compound 3, 1-(3-(7-(4-phenoxyphenyl)-1H-pyrazolo[3,4-c]pyridin-5-yl)piperidin-1-yl)prop-2-en-1-one]
- IC50: < 100 nM

From patent US10336755B2, “Fused pyrazole derivatives, preparation method thereof, and use thereof in treatment of cancers, inflammation and immune diseases” (Beijing InnoCare Pharma Tech Co., Ltd., priority 2016, dated 2019)
